Measured values as given in ChEMBL document CHEMBL1136221, “Analysis of the critical structural determinant(s) of species-selective peroxisome proliferator-activated receptor alpha (PPAR alpha)-activation by phenylpropanoic acid-type PPAR alpha agonists” (Bioorg Med Chem Lett, 2003).
Where a chain is given by its changes, count along the chain named.

How the values were obtained:
Assay type in all cases: cell-based
[1] = molecular target: T1, Peroxisome proliferator-activated receptor alpha (Homo sapiens, UniProt Q07869); test: Transcriptional activation activity on human Peroxisome proliferator activated receptor alpha expressed in CHO-K1 cells
T1 sequence (Q07869 whole entry): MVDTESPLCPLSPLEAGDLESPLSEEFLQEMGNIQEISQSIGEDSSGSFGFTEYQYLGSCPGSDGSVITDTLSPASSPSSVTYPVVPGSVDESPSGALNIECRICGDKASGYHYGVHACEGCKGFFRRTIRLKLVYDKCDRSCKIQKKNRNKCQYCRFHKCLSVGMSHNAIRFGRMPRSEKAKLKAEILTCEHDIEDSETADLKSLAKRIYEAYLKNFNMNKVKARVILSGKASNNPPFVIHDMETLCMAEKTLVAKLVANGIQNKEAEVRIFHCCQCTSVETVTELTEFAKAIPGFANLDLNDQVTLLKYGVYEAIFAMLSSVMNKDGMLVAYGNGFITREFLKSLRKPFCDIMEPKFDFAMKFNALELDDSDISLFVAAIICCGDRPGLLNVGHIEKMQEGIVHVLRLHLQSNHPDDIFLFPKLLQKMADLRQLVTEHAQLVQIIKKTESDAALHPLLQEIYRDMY

[2] = molecular target: Peroxisome proliferator-activated receptor alpha (Homo sapiens, UniProt Q07869, T279M); test: Transcriptional activation activity on human T279M-mutant Peroxisome proliferator activated receptor alpha expressed in CHO-K1 cells
[3] = molecular target: Peroxisome proliferator-activated receptor alpha (Homo sapiens, UniProt Q07869, I272F); test: Transcriptional activation activity on human I272F-mutant Peroxisome proliferator activated receptor alpha expressed in CHO-K1 cells
[4] = test system: Peroxisome proliferator-activated receptor alpha (Homo sapiens), Q07869 [UNDEFINED MUTATION]; test: Ratio of transcriptional activation of I272F mutant compared to wild type PPAR-GAL4 chimeric receptors in CHO-K1 cells
[5] = test system: Peroxisome proliferator-activated receptor alpha (Homo sapiens), Q07869 [UNDEFINED MUTATION]; test: Ratio of transcriptional activation of T279M mutant compared to wild type PPAR-GAL4 chimeric receptors in CHO-K1 cells
[6] = test system: T2, Peroxisome proliferator-activated receptor alpha (Homo sapiens), Q07869 [I272F]; test: Transcriptional activation activity on human I272F-mutant Peroxisome proliferator activated receptor alpha expressed in CHO-K1 cells at 10 uM
T2 sequence (whole entry): T1 sequence (Q07869 whole entry) with I272F

Sequence of Peroxisome proliferator-activated receptor alpha (Homo sapiens, UniProt Q07869, I272F) (Q07869 whole entry I272F, the tested form may be a part): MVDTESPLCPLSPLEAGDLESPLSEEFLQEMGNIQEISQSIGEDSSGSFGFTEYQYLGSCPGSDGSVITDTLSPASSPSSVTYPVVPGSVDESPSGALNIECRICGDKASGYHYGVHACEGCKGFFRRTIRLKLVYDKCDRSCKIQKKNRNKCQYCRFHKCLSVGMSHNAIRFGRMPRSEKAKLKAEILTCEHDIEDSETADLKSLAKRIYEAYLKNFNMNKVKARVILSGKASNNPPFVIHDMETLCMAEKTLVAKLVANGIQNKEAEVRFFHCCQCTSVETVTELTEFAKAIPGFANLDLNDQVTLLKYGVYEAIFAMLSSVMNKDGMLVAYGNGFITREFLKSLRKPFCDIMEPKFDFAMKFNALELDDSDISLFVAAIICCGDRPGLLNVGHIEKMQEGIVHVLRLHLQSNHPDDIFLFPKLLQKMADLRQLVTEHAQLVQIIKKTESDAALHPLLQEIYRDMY
Sequence of Peroxisome proliferator-activated receptor alpha (Homo sapiens, UniProt Q07869, T279M) (Q07869 whole entry T279M): as the sequence (Q07869 whole entry I272F, the tested form may be a part) above, with F272I, T279M counted along it

SMILES | EC50 [1] [µM] | EC50 [2] [µM] | EC50 [3] [µM] | Ratio [4] | Ratio [5] | inhibition [6] [%]
CC[C@@H](Cc1ccc(OC)c(C(=O)NCc2ccc(C(F)(F)F)cc2)c1)C(=O)O | 0.0803 | 0.309 | 2.82 |  |  | 
CC[C@@H](Cc1ccc(OC)c(OCCc2ccc(C(F)(F)F)cc2)c1)C(=O)O | 2.72 | 16.1 | 33.4 | 12.3 | 5.92 | 
CC[C@@H](Cc1ccc(OC)c(C(=O)NCc2ccccc2)c1)C(=O)O | 3.38 | 11.4 |  |  | 3.37 | 30
CC[C@@H](Cc1ccc(OC)c(C(=O)NCc2ccc(Oc3ccc(F)cc3)cc2)c1)C(=O)O | 0.000615 | 0.014 | 0.667 | 108 | 2.28 | 
